Data on six compounds can be found in US11382328B2, “Rapid drug discovery methods for pathogen inactivation” (priority 2019, dated 2022).

In the assay the test system is E. coli strain W3110. Nature of the assay: Synergy assays: Biolog chemical sensitivity panels with Group IB metal, coefficient of drug interaction (CDI) from relative growth. The format is cell-based. To be noted: for CDI (coefficient of drug interaction), copper mixed with biocide: Copper (mM) section.
Where [1] appears, read: Silver 0.5 μM, 1st of four biocide concentrations, E. coli.
The mark [2] stands for this setting: Silver 0.5 μM, 2nd of four biocide concentrations, E. coli.
[3] abbreviates: Silver 0.5 μM, 3rd of four biocide concentrations, E. coli.
[4] abbreviates: Silver 0.5 μM, 4th of four biocide concentrations, E. coli.
The mark [5] stands for this setting: Silver 1.0 μM, 1st of four biocide concentrations, E. coli.
Setting [6] is: Silver 1.0 μM, 2nd of four biocide concentrations, E. coli.
The mark [7] stands for this setting: Silver 1.0 μM, 3rd of four biocide concentrations, E. coli.
[8] abbreviates: Silver 1.0 μM, 4th of four biocide concentrations, E. coli.
The mark [9] stands for this setting: Silver 5.0 μM, 1st of four biocide concentrations, E. coli.
Setting [10] is: Silver 5.0 μM, 2nd of four biocide concentrations, E. coli.
The mark [11] stands for this setting: Silver 5.0 μM, 3rd of four biocide concentrations, E. coli.
[12] abbreviates: Silver 5.0 μM, 4th of four biocide concentrations, E. coli.
The mark [13] stands for this setting: 1st of 3 copper concentrations (value not shown), 4th of four biocide concentrations.
The mark [14] stands for this setting: 2nd of 3 copper concentrations (value not shown), 3rd of four biocide concentrations.
The mark [15] stands for this setting: 2nd of 3 copper concentrations (value not shown), 4th of four biocide concentrations.
Setting [16] is: 3rd of 3 copper concentrations (value not shown), 4th of four biocide concentrations.
Where [17] appears, read: Gold section of Table 5, first of three gold concentrations (μM, value not given), biocide concentration 4 of 4.
[18] abbreviates: Gold section of Table 5, second of three gold concentrations (μM, value not given), biocide concentration 4 of 4.
The mark [19] stands for this setting: Gold section of Table 5, third of three gold concentrations (μM, value not given), biocide concentration 4 of 4.
[20] abbreviates: 1st of 3 copper concentrations (value not shown), 3rd of four biocide concentrations.
[21] abbreviates: 3rd of 3 copper concentrations (value not shown), 3rd of four biocide concentrations.
The mark [22] stands for this setting: Gold section of Table 5, first of three gold concentrations (μM, value not given), biocide concentration 3 of 4.
[23] abbreviates: Gold section of Table 5, second of three gold concentrations (μM, value not given), biocide concentration 3 of 4.
Setting [24] is: Gold section of Table 5, third of three gold concentrations (μM, value not given), biocide concentration 3 of 4.

`O=C(O)CN(CCOCCOCCN(CC(=O)O)CC(=O)O)CC(=O)O` [EGTA]: the CDI was 1.05 (Copper 0.1 mM, biocide concentration 1 of 4); 1.25 (Copper 0.1 mM, biocide concentration 2 of 4); 1.28 (Copper 0.1 mM, biocide concentration 3 of 4); 1.06 (Copper 0.1 mM, biocide concentration 4 of 4); 0.87 (Copper 0.5 mM, biocide concentration 1 of 4); 1.02 (Copper 0.5 mM, biocide concentration 2 of 4). The CDI by setting is: (Copper 0.5 mM, biocide concentration 3 of 4) 1.06; (Copper 0.5 mM, biocide concentration 4 of 4) 1.04; (Copper 1.0 mM, biocide concentration 1 of 4) 0.94; (Copper 1.0 mM, biocide concentration 2 of 4) 1.30; (Copper 1.0 mM, biocide concentration 3 of 4) 1.59; (Copper 1.0 mM, biocide concentration 4 of 4) 1.44. In addition, the “CDI (coefficient of drug interaction)” value reads like this: (Gold 5 μM, biocide concentration 1 of 4, E. coli) 1.05; (Gold 5 μM, biocide concentration 2 of 4, E. coli) 0.88; (Gold 5 μM, biocide concentration 3 of 4, E. coli) 0.94; (Gold 5 μM, biocide concentration 4 of 4, E. coli) 0.92; (Gold 25 μM, biocide concentration 1 of 4, E. coli) 1.07; (Gold 25 μM, biocide concentration 2 of 4, E. coli) 1.00. The “CDI (coefficient of drug interaction)” value is, setting by setting: (Gold 25 μM, biocide concentration 3 of 4, E. coli) 0.95; (Gold 25 μM, biocide concentration 4 of 4, E. coli) 0.97; ([…], biocide concentration 1 of 4, E. coli) 1.02; ([…], biocide concentration 2 of 4, E. coli) 1.13; ([…], biocide concentration 3 of 4, E. coli) 1.04; ([…], biocide concentration 4 of 4, E. coli) 1.11. The “CDI (coefficient of drug interaction), silver + biocide” value (shortened to “CDI … silver + biocide”) by setting is: under setting [1], 0.74; under setting [2], 0.86; under setting [3], 0.82; under setting [4], 0.92; under setting [5], 1.02; under setting [6], 1.07. The “CDI … silver + biocide” value under setting [7] stood at 1.01; the “CDI … silver + biocide” value under setting [8] was 1.02; the “CDI … silver + biocide” value under setting [9] was found to be 1.13; the “CDI … silver + biocide” value under setting [10] is recorded as 0.98; the “CDI … silver + biocide” value under setting [11] stood at 0.72; the “CDI … silver + biocide” value under setting [12] was found to be 0.4.
In the case of `CCCCCCCCCCCCNC(=N)N` [dodine], the “CDI (coefficient of drug interaction), copper mixed with biocide” value (“CDI … with biocide” below) reads like this: under setting [13], “Tox”; under setting [14], “Tox”; under setting [15], “Tox”; under setting [16], “Tox”. In addition, the “CDI (coefficient of drug interaction)” value reads like this: under setting [17], “Tox”; under setting [18], “Tox”; under setting [19], “Tox”. Besides, the “CDI … silver + biocide” value is “Tox” under setting [3]; “Tox” under setting [4]; “Tox” under setting [7]; “Tox” under setting [8]; “Tox” under setting [11]; “Tox” under setting [12].
Regarding `CCn1cc(C(=O)O)c(=O)c2cc(F)c(N3CCNCC3)nc21` [enoxacin], the “CDI (coefficient of drug interaction)” value by setting is: (Gold 50 μM, biocide concentration 3 of 4, E. coli) “Tox”; (Gold 50 μM, biocide concentration 4 of 4, E. coli) “Tox”.
As for `O=C(O)c1ccccc1S` [thiosalicylic acid], the “CDI … silver + biocide” value under setting [4] is on record as “Tox”; the “CDI … silver + biocide” value under setting [8] is reported as “Tox”; the “CDI … silver + biocide” value under setting [12] is given as “Tox”.
Turning to `CCCCC(CC)CNC(=N)NC(=N)NCCCCCCNC(=N)NC(=N)NCC(CC)CCCC` (centres unmarked) [alexidine], the “CDI … with biocide” value under setting [20] is listed as “Tox”; the “CDI … with biocide” value under setting [13] is on record as “Tox”; the “CDI … with biocide” value under setting [14] was “Tox”; the “CDI … with biocide” value under setting [15] is reported as “Tox”; the “CDI … with biocide” value under setting [21] was “Tox”; the “CDI … with biocide” value under setting [16] was “Tox”. Also, the “CDI (coefficient of drug interaction)” value is, setting by setting: under setting [22], “Tox”; under setting [17], “Tox”; under setting [23], “Tox”; under setting [18], “Tox”; under setting [24], “Tox”; under setting [19], “Tox”. Moreover, the “CDI … silver + biocide” value runs as follows: under setting [3], “Tox”; under setting [4], “Tox”; under setting [7], “Tox”; under setting [8], “Tox”; under setting [11], “Tox”; under setting [12], “Tox”.
protamine sulfate: the “CDI … with biocide” value reads like this: (1st of 3 copper concentrations (value not shown), 1st of four biocide concentrations) 0.79; (1st of 3 copper concentrations (value not shown), 2nd of four biocide concentrations) “Tox”; under setting [20], “Tox”; under setting [13], “Tox”; (2nd of 3 copper concentrations (value not shown), 1st of four biocide concentrations) 1.09; (2nd of 3 copper concentrations (value not shown), 2nd of four biocide concentrations) 1.26. The “CDI … with biocide” value runs as follows: under setting [14], “Tox”; under setting [15], “Tox”; (3rd of 3 copper concentrations (value not shown), 1st of four biocide concentrations) 0.56; (3rd of 3 copper concentrations (value not shown), 2nd of four biocide concentrations) “Tox”; under setting [21], “Tox”; under setting [16], “Tox”. For the same compound, the “CDI (coefficient of drug interaction)” value (Gold section of Table 5, first of three gold concentrations (μM, value not given), biocide concentration 2 of 4) is reported as 0.96; the “CDI (coefficient of drug interaction)” value under setting [22] is 0.49; the “CDI (coefficient of drug interaction)” value under setting [17] is listed as “Tox”; the “CDI (coefficient of drug interaction)” value (Gold section of Table 5, second of three gold concentrations (μM, value not given), biocide concentration 1 of 4) is 0.99; the “CDI (coefficient of drug interaction)” value (Gold section of Table 5, second of three gold concentrations (μM, value not given), biocide concentration 2 of 4) is recorded as 0.94; the “CDI (coefficient of drug interaction)” value under setting [23] turned out to be 2.22. The “CDI (coefficient of drug interaction)” value reads like this: under setting [18], “Tox”; (Gold section of Table 5, third of three gold concentrations (μM, value not given), biocide concentration 1 of 4) 0.92; (Gold section of Table 5, third of three gold concentrations (μM, value not given), biocide concentration 2 of 4) 1.09; under setting [24], 1.56; under setting [19], “Tox”. Further, the “CDI … silver + biocide” value reads like this: under setting [1], 1.10; under setting [2], 1.15; under setting [3], “Tox”; under setting [4], “Tox”; under setting [5], 0.95; under setting [6], 1.00. For the same compound, the “CDI … silver + biocide” value reads like this: under setting [7], “Tox”; under setting [8], “Tox”; under setting [9], 0.84; under setting [10], 0.90; under setting [11], “Tox”; under setting [12], “Tox”.
